Data reported in PubChem BioAssay AID1996.
In brackets after ≈: the same amount, converted by molar mass.

Details: buffer; pH 7.4; 200.0 µM

solubility kinetic [µg/mL]	Compound
7.4 (≈ 22.9 µM)	Cc1ccc(C(=O)NCC(=O)NCc2ccc(Cl)cc2)s1
17.7 (≈ 58.1 µM)	COc1ccc(NC(=O)O/N=C/c2ccccc2Cl)cc1
> 47.8	CC(C)(CNCc1ccccc1)NS(=O)(=O)c1ccccc1
< 0.3	Clc1ccccc1-c1nc(-c2ccc(Br)o2)no1
> 41.1	COc1ccc(NC(=O)Nc2cnccn2)cc1OC
7.2 (≈ 15.9 µM)	O=C(CNS(=O)(=O)c1ccc(Br)cc1)N1CCN(Cc2ccccc2)CC1
> 59	CSCCC(NS(=O)(=O)c1ccc(C)cc1C)C(=O)Nc1cccnc1 (stereo unspecified)
> 43.6	S=C(NCc1ccc2c(c1)OCO2)NCc1ccco1
> 29.6	C#CCn1c(=O)cc(C)c2ccccc21
17.9 (≈ 57.1 µM)	CN(C)CCSc1nc(-c2ccccc2)nc2c1CCCC2
> 46.7	Cc1cccc(NC(=O)CN2C(=O)C(C)Oc3ccccc32)n1 (stereo unspecified)
11.8 (≈ 52.1 µM)	Nc1nc(-c2ccc3ccccc3c2)cs1
4.5 (≈ 12.8 µM)	CCOc1ccc(N2CC(C(=O)N3CCc4ccccc43)CC2=O)cc1 (stereo unspecified)
1.7 (≈ 5.69 µM)	O=C(Nc1cccc(Cl)c1)Nc1ccc2nccnc2c1
3.7 (≈ 9.31 µM)	CN(CC(=O)Nc1cccc(C(F)(F)F)c1)C1=NS(=O)(=O)c2ccccc21
> 41.4	Cc1cc(NC(=O)COC(=O)c2cccc(O)c2)no1
> 48.2	COc1ccc(NC(=O)COC(=O)c2ccc(F)cc2F)cc1
> 46.8	O=C(O)CSc1cccnc1Sc1ccc(Cl)cc1
15.1 (≈ 43.8 µM)	COc1ccc(CNc2nc3ccc(C)cc3s2)c(OC)c1OC
20.1 (≈ 55.9 µM)	O=C(CC(c1ccccc1)c1ccccc1)NCCOCc1ccccc1
19.5 (≈ 78.5 µM)	Cc1sc(N)nc1-c1ccc2c(c1)OCCO2
> 54.4	CCOC(=O)c1ccc(NS(=O)(=O)c2ccc3oc(=O)[nH]c3c2)cc1
> 47.9	O=C(O)CNc1nc(-c2ccccc2)nc2c1oc1ccccc12
> 45.5	Cc1cc(NC(=O)c2cccs2)ncc1NC(=O)C(C)C
10.3 (≈ 48.3 µM)	S=C(NC1CC1)SCc1ccco1
14.5 (≈ 91.7 µM)	Nc1ccccc1-n1cccc1

The next lines start with the compound.

Compound	solubility kinetic [µg/mL]
CC(C)CNS(=O)(=O)c1cc2c3c(c1)CC(=O)N3CCC2	45.8 (≈ 149 µM)
CN1CCCN(C(=O)COc2ccc(F)cc2F)CC1	> 42.6
CCOc1ccc(Cl)cc1S(=O)(=O)NC1CCCC1	38.8 (≈ 128 µM)
COc1ccccc1N1C(=O)S/C(=C\c2ccc(C)s2)C1=O	< 0.7
Cc1nn(CC(=O)NC2CCC(C)CC2)c(=O)c(C#N)c1C (stereo unspecified)	> 45.4
CC(c1ccccc1)N1CC(C(=O)Nc2ccc(F)cc2)CC1=O (stereo unspecified)	> 49
CC1CCC2(CC1)NC(=O)N(CC(=O)N1CC(C)CC(C)C1)C2=O (stereo unspecified)	15.8 (≈ 47.1 µM)
Cc1ccc(N2C(=O)C3CCC(C)(C2=O)C3(C)C)cc1C (stereo unspecified)	32.3 (≈ 113 µM)
COC(=O)NCN1C(=O)C2C3C=CC(C3)C2C1=O (stereo unspecified)	34.4 (≈ 137 µM)
Cc1[nH]c2ccc(C(=O)NC3CCC(C)CC3)cc2c1C (stereo unspecified)	0.9 (≈ 3.16 µM)
OCCNc1nc(N2CCOCC2)nc(N2CCOCC2)n1	44.7 (≈ 144 µM)
C=CCNC(=O)COC(=O)c1ccc(Cl)c(S(N)(=O)=O)c1	> 49.9
Cc1nnc(SCC(=O)NC2CC2)n1CC1CCCO1 (stereo unspecified)	> 44.5
Cc1cccc(N=C2NC(=O)/C(=C/c3cccnc3)S2)c1C	5.1 (≈ 16.5 µM)
Cn1c(SCC(=O)N2CCCC2=O)nc2ccccc2c1=O	13.2 (≈ 41.6 µM)
CS(=O)(=NS(=O)(=O)c1ccc(Cl)cc1)c1ccccc1 (stereo unspecified)	> 49.5
CCN1CCN(CC(=O)Nc2ccc(C(C)=O)cc2)CC1.Cl	45.2
CCS(=O)(=O)C(C)(CCl)C(=O)Nc1ccc(C(=O)OC)cc1 (stereo unspecified)	> 52.2

Compound	solubility kinetic [µg/mL]
COC(=O)Cn1c(N2CCCC2)nc2c1c(=O)n(C)c(=O)n2C	> 48.2
COc1ccc(C(=O)NC23CC4CC(CC(C4)C2)C3)cc1	1 (≈ 3.5 µM)
Cc1cc([N+](=O)[O-])c2ccccc2[n+]1[O-]	> 30.6
Cn1c(=O)[nH]c(=O)c2c1nc(N1CCNCC1)n2Cc1ccccc1	45.8 (≈ 135 µM)
CCCC(=O)OC/C(O)=C(\C#N)c1nc2ccccc2[nH]1	32.4 (≈ 114 µM)
Cn1c(=O)c2c(nc(SCc3ccc(F)cc3)n2C)n(C)c1=O	2 (≈ 5.98 µM)
CN1C2=CC=CC=CC2=[N+](C)C12C([N+](=O)[O-])=CC(=[N+]([O-])[O-])C=C2[N+](=O)[O-] (stereo unspecified)	0.7 (≈ 1.95 µM)
CCC1CCC2(CC1)SCC(=O)N2c1ccccc1 (stereo unspecified)	5.7 (≈ 20.7 µM)
O=C(CN1CCCCCC1)Nc1ccccc1OC(F)F	44.5 (≈ 149 µM)
COC(=O)c1[nH]c2c(c1C)C(=O)CC(c1ccc(OC)c(OC)c1)C2 (stereo unspecified)	2.1 (≈ 6.12 µM)
CN(C)CCNC(=S)NC1CCCCC1	32.7 (≈ 143 µM)
O=C(O)C1CCCNC1 (stereo unspecified)	0.4 (≈ 3.1 µM)
Cc1ccc(NC(=O)N2CCCCCC2)c(C)c1	> 37
Cc1cc(C)nc(SC2CC(=O)N(c3ccc(C)c(C)c3)C2=O)n1 (stereo unspecified)	19.7 (≈ 57.7 µM)
COc1cc2c(cc1OC)CN(C(=O)CCC(=O)c1ccc(F)cc1)CC2	> 55.7
CN(C)CC(C)(C)CNS(=O)(=O)c1ccc(Cl)cc1.Cl	49.4
Cc1nc(C)c(C(=O)O)s1	> 23.6
